Consider two molecules from US8987502B2, “Oleanolic acid amidate derivatives, preparation methods and uses thereof” (Hangzhou Bensheng Pharmaceutical Co., Ltd., priority 2011, dated 2015).

In general, inhibition refers to how much of the control response was suppressed. A word on the IC50: it is the midpoint of a concentration-inhibition curve. A high value points to lower potency.

One assay deals with A549. Briefly: MTT solid tumor cell proliferation inhibition, A549. The class given is cell-based, human. As to conditions: Homo sapiens; for inhibition at 16 µg/mL: A549, 16 μg/mL compound, 72 h, read-out: IR (inhibition rate); for IC50: A549, 72 h, MTT. On the procedure: Human solid tumor cell lines: Hep-2 (laryngeal carcinoma), A549 (human lung cancer), CaES-17 (esophageal cancer cell), PC-3 (prostate cancer), CNE (nasopharyngeal carcinoma cell), and SK-OV-3 (ovarian cancer cell), all of which are purchased from China Center For Type Culture Collection; RKO (human colon adenocarcinoma cell), MGC 803 (human gastric cancer cell), MG63 (osteosarcoma) and U87 MG (malignant glioma cell), all of which are purchased from Fuxiang Bio-tech Co. Ltd., Shanghai, China; PANC-1 (pancreatic cancer), Hep G2 (human liver cancer cell), Becap37 (human breast cancer cell), and Hela (human cervical cancer cell), all of which are donated by Cancer Research Institute of Zhejiang University, China.
Obtaining 4000 well-growing human solid tumor cells and inoculating them into wells of a 96-well cell culture plate. The culture medium is DMEM High Glucose cell culture medium containing 10% fetal bovine serum. The plate is placed in a carbon dioxide cell incubator (5% CO2) at 37° C. for 24 hours for incubation. After being added with the amidated oleanolic acid derivatives of different concentrations and mixed uniformly, the plate is placed in a carbon dioxide cell incubator (5% CO2) at 37° C. for 72 hours for incubation. Then the relative number of the living cells is determined by the MTT method. In this experiment, the cell proliferation inhibition rate in control group (not treated with any compound) is set as 0%.

A further assay concerns K562/adr. Briefly: MTT leukemia cell proliferation inhibition, K562/adr. The class given is cell-based. Conditions: Homo sapiens, 72 h; for inhibition at 16 µg/mL: 16 μg/mL compound, read-out: IR (inhibition rate); for IC50: MTT. From the text:
Leukemia cell lines: leukemia cell lines: K562/adr (drug-resistant, chronic myeloid leukemia, CML), NB4 (acute promyelocytic leukemia, AML), Kasumi-1 (acute myeloid leukemia M2 type, AML-M2), Jurkat (acute lymphoblastic leukemia, ALL), all of which are donated by Cancer Research Institute of Zhejiang University, China; and H9 (acute lymphoblastic leukemia, ALL), which is purchased from China Center for Type Culture Collection (CCTCC).
Reagents: The standard sample of oleanolic acid (OA) is purchased from Hua Kang Pharmaceutical Raw Material Factory, Shifang City, Sichuan, China; and the amidated oleanolic acid derivatives are prepared according to the present invention.
Obtaining 6000 well-growing leukemia cells and inoculating them into wells of a 96-well cell culture plate. The culture medium is the 1640 cell culture medium containing 10% fetal bovine serum. After adding the amidated oleanolic acid derivatives of different concentrations and mixing uniformly, placing the plate in a carbon dioxide cell incubator (5% CO2) at 37° C. and incubated for 72 hours. Then the relative number of viable cells is determined by the MTT method. In this experiment, the cell proliferation inhibition rate in control group (not treated with any compound) is set as 0%.

Each structure is given as a SMILES string. Where only a bound is given, the exact number is not on record here.

In the case of `CC1(C)CC[C@]2(NC(=O)/C=C/c3ccco3)CC[C@]3(C)C(=CC[C@@H]4[C@@]5(C)CC[C@H](O)C(C)(C)[C@@H]5CC[C@]43C)[C@@H]2C1` [BS-OA-100], in the assay on A549, the inhibition at 16 µg/mL came out at 15.6% and the IC50 was above 16 µg/mL. Moreover, in the assay with K562/adr, the inhibition at 16 µg/mL was found to be 38.8% and the IC50 was above 16 µg/mL.
Take `Cc1ccc(C(=O)N[C@]23CCC(C)(C)C[C@H]2C2=CC[C@@H]4[C@@]5(C)CC[C@H](O)C(C)(C)[C@@H]5CC[C@@]4(C)[C@]2(C)CC3)cc1` [BS-OA-102]: in the assay with A549, the inhibition at 16 µg/mL worked out at 13.7% and the half-inhibitory concentration (IC50) was above 16 µg/mL. For the same molecule, in the assay on K562/adr, the inhibition at 16 µg/mL amounted to 57% and the IC50 is above 16 µg/mL.
